How the values were obtained:
[1] = test system: surinam grass; assay: Test B pre/postemergence surinam grass; type: in vivo, Brachiaria decumbens
Outline: (§1)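 Herbicidal effect was estimated by eye on a ten-point control scale after plants spent twelve to sixteen days in a greenhouse following soil or foliar treatment. Foliar sprays targeted plants at one to four leaves; all doses were formulated in a non-phytotoxic solvent with surfactant.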

[2] = test system: morningglory; assay: Test B pre/postemergence morningglory; type: in vivo, Ipomoea hederacea
Outline: as §1

[3] = test system: rice; assay: Test B flood test rice; type: in vivo, Oryza sativa
Outline: (§2)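 Read-out is a visual response score from 0 (no effect) to 10 (complete control), assigned by comparison with untreated controls. Treatment was applied at the 2-leaf stage, and plants stayed in the greenhouse for twelve to sixteen days before scoring.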

[4] = test system: sugar beet; assay: Test B pre/postemergence sugar beet; type: in vivo, Beta vulgaris
Outline: as §1

[5] = test system: giant foxtail; assay: Test B pre/postemergence giant foxtail; type: in vivo, Setaria faberii
Outline: as §1

[6] = test system: cocklebur; assay: Test B pre/postemergence cocklebur; type: in vivo, Xanthium strumarium
Outline: as §1

[7] = test system: pigweed; assay: Test B pre/postemergence pigweed; type: in vivo, Amaranthus retroflexus
Outline: as §1

[8] = test system: wheat; assay: Test B pre/postemergence wheat; type: in vivo, Triticum aestivum
Outline: as §1

[9] = test system: crabgrass; assay: Test B pre/postemergence crabgrass; type: in vivo, Digitaria sanguinalis
Outline: as §1

[10] = test system: blackgrass; assay: Test B pre/postemergence blackgrass; type: in vivo, Alopecurus myosuroides
Outline: as §1

[11] = test system: bedstraw; assay: Test B pre/postemergence bedstraw; type: in vivo, Galium aparine
Outline: as §1

[12] = test system: bamyardgrass; assay: Test B flood test barnyardgrass; type: in vivo, Echinochloa crus-galli
Outline: as §2

[13] = test system: velvetleaf; assay: Test B pre/postemergence velvetleaf; type: in vivo, Abutilon theophrasti
Outline: as §1

[14] = test system: duck salad; assay: Test B flood test duck salad; type: in vivo, Heteranthera limosa
Outline: as §2

[15] = test system: wild oat; assay: Test B pre/postemergence wild oat; type: in vivo, Avena fatua
Outline: as §1

[16] = test system: purple nutsedge; assay: Test B pre/postemergence purple nutsedge; type: in vivo, Cyperus rotundus; conditions: Postemergence
Outline: as §1

[17] = Preemergence, Rate 62 g/ha, scale of 0 to 10 where 0 is no effect and 10 is complete control
[18] = Preemergence, Rate 500 g/ha, scale of 0 to 10 where 0 is no effect and 10 is complete control
[19] = Rate 62 g/ha, Postemergence, scale of 0 to 10 where 0 is no effect and 10 is complete control
[20] = Rate 125 g/ha, Preemergence, scale of 0 to 10 where 0 is no effect and 10 is complete control
[21] = Rate 500 g/ha, Postemergence, scale 0 to 10, 0 no effect, 10 complete control
[22] = Preemergence, Rate 250 g/ha, scale of 0 to 10 where 0 is no effect and 10 is complete control
[23] = Rate 125 g/ha, Postemergence, scale 0 to 10
[24] = Rate 62 g/ha, headed Pre-emergence (flood test species), scale 0 to 10 (0 no effect, 10 complete control)
[25] = Rate 125 g/ha, Pre-emergence, flood test species, scale 0 to 10 where 0 is no effect and 10 is complete control
[26] = Rate 250 g/ha, Pre-emergence, flood-test species, scale 0 to 10, 0 is no effect, 10 is complete control
[27] = Rate 500 g/ha, Pre-emergence, flood test species, scale 0 to 10 (0 no effect, 10 complete control)

SMILES: CC(C)N(C(=O)n1oc(=O)n(CCC2OCCO2)c1=O)c1ccc(F)cc1 [Compound 219]
- B. signalgrass plant response rating [1, 17]: 4
- B. signalgrass plant response rating ([1]; Preemergence, Rate 250 g/ha, scale 0 to 10, 0 is no effect, 10 is complete control): 9
- Plant response rating, B. signalgrass [1, 18]: 9
- B. signalgrass plant response rating [1, 19]: 0
- B. signalgrass plant response rating ([1]; Rate 125 g/ha, Postemergence, scale 0 (no effect) to 10 (complete control)): 2
- B. signalgrass plant response rating [1, 20]: 6
- Plant response rating (0 to 10; 0 is no effect, 10 is complete control), B. signalgrass ([1]; Rate 250 g/ha, Postemergence): 5
- B. signalgrass plant response rating [1, 21]: 8
- Morningglory plant response rating [2, 17]: 0
- Morningglory plant response rating [2, 22]: 0
- Plant response rating, Morningglory [2, 18]: 1
- Morningglory plant response rating [2, 19]: 6
- Morningglory plant response rating [2, 23]: 6
- Morningglory plant response rating [2, 20]: 0
- Plant response rating (0 to 10; 0 is no effect, 10 is complete control), Morningglory ([2]; Rate 250 g/ha, Postemergence): 7
- Morningglory plant response rating [2, 21]: 7
- Rice plant response rating [3, 24]: 0
- Rice plant response rating [3, 25]: 0
- Rice plant response rating [3, 26]: 0
- Rice plant response rating [3, 27]: 6
- Sugarbeets plant response rating [4, 17]: 3
- Sugarbeets plant response rating [4, 22]: 4
- Plant response rating, Sugarbeets [4, 18]: 8
- Sugarbeets plant response rating [4, 19]: 4
- Sugarbeets plant response rating [4, 23]: 4
- Sugarbeets plant response rating [4, 20]: 4
- Plant response rating (0 to 10; 0 is no effect, 10 is complete control), Sugarbeets ([4]; Rate 250 g/ha, Postemergence): 4
- Sugarbeets plant response rating [4, 21]: 7
- Giant foxtail plant response rating [5, 17]: 10
- Giant foxtail plant response rating [5, 22]: 10
- Plant response rating, Giant foxtail [5, 18]: 10
- Giant foxtail plant response rating [5, 19]: 6
- Giant foxtail plant response rating [5, 23]: 7
- Giant foxtail plant response rating [5, 20]: 10
- Plant response rating (0 to 10; 0 is no effect, 10 is complete control), Giant foxtail ([5]; Rate 250 g/ha, Postemergence): 8
- Giant foxtail plant response rating [5, 21]: 9
- Cocklebur plant response rating [6, 17]: 0
- Cocklebur plant response rating [6, 22]: 0
- Plant response rating, Cocklebur [6, 18]: 0
- Cocklebur plant response rating [6, 19]: 1
- Cocklebur plant response rating [6, 23]: 1
- Cocklebur plant response rating [6, 20]: 0
- Plant response rating (0 to 10; 0 is no effect, 10 is complete control), Cocklebur ([6]; Rate 250 g/ha, Postemergence): 4
- Cocklebur plant response rating [6, 21]: 4
- Redroot pigweed plant response rating [7, 17]: 0
- Redroot pigweed plant response rating [7, 22]: 9
- Plant response rating, Redroot pigweed [7, 18]: 10
- Redroot pigweed plant response rating [7, 19]: 5
- Redroot pigweed plant response rating [7, 23]: 7
- Redroot pigweed plant response rating [7, 20]: 4
- Plant response rating (0 to 10; 0 is no effect, 10 is complete control), Redroot pigweed ([7]; Rate 250 g/ha, Postemergence): 8
- Redroot pigweed plant response rating [7, 21]: 8
- Wheat plant response rating [8, 17]: 3
- Wheat plant response rating [8, 22]: 8
- Plant response rating, Wheat [8, 18]: 9
- Wheat plant response rating [8, 19]: 5
- Wheat plant response rating [8, 23]: 6
- Wheat plant response rating [8, 20]: 5
- Plant response rating (0 to 10; 0 is no effect, 10 is complete control), Wheat ([8]; Rate 250 g/ha, Postemergence): 7
- Wheat plant response rating [8, 21]: 7
- Crabgrass plant response rating [9, 17]: 5
- Crabgrass plant response rating [9, 22]: 9
- Plant response rating, Crabgrass [9, 18]: 10
- Crabgrass plant response rating [9, 19]: 3
- Crabgrass plant response rating [9, 23]: 4
- Crabgrass plant response rating [9, 20]: 8
- Plant response rating (0 to 10; 0 is no effect, 10 is complete control), Crabgrass ([9]; Rate 250 g/ha, Postemergence): 6
- Crabgrass plant response rating [9, 21]: 8
- Blackgrass plant response rating [10, 17]: 7
- Blackgrass plant response rating [10, 22]: 10
- Plant response rating, Blackgrass [10, 18]: 10
- Blackgrass plant response rating [10, 19]: 5
- Blackgrass plant response rating [10, 23]: 7
- Blackgrass plant response rating [10, 20]: 10
- Plant response rating (0 to 10; 0 is no effect, 10 is complete control), Blackgrass ([10]; Rate 250 g/ha, Postemergence): 8
- Blackgrass plant response rating [10, 21]: 8
- Bedstraw plant response rating [11, 17]: 1
- Bedstraw plant response rating [11, 22]: 8
- Plant response rating, Bedstraw [11, 18]: 9
- Bedstraw plant response rating [11, 19]: 6
- Bedstraw plant response rating [11, 23]: 6
- Bedstraw plant response rating [11, 20]: 5
- Plant response rating (0 to 10; 0 is no effect, 10 is complete control), Bedstraw ([11]; Rate 250 g/ha, Postemergence): 8
- Bedstraw plant response rating [11, 21]: 8
- Barnyardgrass plant response rating [12, 24]: 0
- Barnyardgrass plant response rating [12, 25]: 0
- Barnyardgrass plant response rating [12, 26]: 8
- Barnyardgrass plant response rating [12, 27]: 9
- Velvetleaf plant response rating [13, 17]: 3
- Velvetleaf plant response rating [13, 22]: 7
- Plant response rating, Velvetleaf [13, 18]: 10
- Velvetleaf plant response rating [13, 19]: 0
- Velvetleaf plant response rating [13, 23]: 0
- Velvetleaf plant response rating [13, 20]: 6
- Plant response rating (0 to 10; 0 is no effect, 10 is complete control), Velvetleaf ([13]; Rate 250 g/ha, Postemergence): 2
- Velvetleaf plant response rating [13, 21]: 4
- Ducksalad plant response rating [14, 24]: 0
- Ducksalad plant response rating [14, 25]: 0
- Ducksalad plant response rating [14, 26]: 0
- Ducksalad plant response rating [14, 27]: 3
- Wild oats plant response rating [15, 17]: 2
- Wild oats plant response rating [15, 22]: 8
- Plant response rating, Wild oats [15, 18]: 9
- Wild oats plant response rating [15, 19]: 1
- Wild oats plant response rating [15, 23]: 3
- Wild oats plant response rating [15, 20]: 5
- Plant response rating (0 to 10; 0 is no effect, 10 is complete control), Wild oats ([15]; Rate 250 g/ha, Postemergence): 4
- Wild oats plant response rating [15, 21]: 6
- Nutsedge plant response rating ([16]; Rate 62 g/ha, scale of 0 to 10 where 0 is no effect and 10 is complete control): 0
- Nutsedge plant response rating ([16]; Rate 125 g/ha, scale 0 to 10): 0
- Plant response rating (0 to 10; 0 is no effect, 10 is complete control), Nutsedge ([16]; Rate 250 g/ha): 0
- Nutsedge plant response rating ([16]; Rate 500 g/ha, scale 0 to 10, 0 no effect, 10 complete control): 0

Reference: US6737383B1, “Herbicidal oxadiazolidines” (priority 1999, dated 2004)
